Structures can show the parent of a compound that is named as a salt.

The target in one assay is T1, HCV NS3 protease (full length NS34a) (Hepatitis C virus genotype 1b, UniProt P26663).
T1 construct: The protease activity of the full length NS34a was measured using a FRET-based assay; made in house
T1 sequence (P26663 1658-1711): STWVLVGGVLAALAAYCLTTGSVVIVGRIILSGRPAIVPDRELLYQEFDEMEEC
T1 sequence (P26663 1027-1657): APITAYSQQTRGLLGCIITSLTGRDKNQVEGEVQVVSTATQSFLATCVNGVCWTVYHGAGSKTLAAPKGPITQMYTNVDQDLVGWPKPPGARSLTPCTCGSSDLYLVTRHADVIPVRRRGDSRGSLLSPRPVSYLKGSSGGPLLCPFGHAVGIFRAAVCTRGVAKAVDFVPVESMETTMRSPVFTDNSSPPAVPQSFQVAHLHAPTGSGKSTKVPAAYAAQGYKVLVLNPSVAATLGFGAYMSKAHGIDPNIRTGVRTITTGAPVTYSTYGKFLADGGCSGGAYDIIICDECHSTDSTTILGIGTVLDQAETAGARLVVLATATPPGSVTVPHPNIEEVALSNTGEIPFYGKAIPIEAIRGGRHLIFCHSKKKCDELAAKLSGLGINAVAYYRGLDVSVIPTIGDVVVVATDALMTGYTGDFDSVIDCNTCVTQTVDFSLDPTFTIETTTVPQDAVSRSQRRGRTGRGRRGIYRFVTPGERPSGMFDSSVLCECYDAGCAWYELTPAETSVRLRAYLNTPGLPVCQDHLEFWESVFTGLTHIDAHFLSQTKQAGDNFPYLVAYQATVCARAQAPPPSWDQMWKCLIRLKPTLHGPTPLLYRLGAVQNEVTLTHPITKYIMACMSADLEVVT
Nature of the assay: HCV NS3 protease assay (FRET, full length NS34a). The conditions noted are these: IC50 values of 10-150 μM against the protease activity of the full length NS34a, or at least 40% inhibition of protease activity at a concentration of 100 μM. The format is biochemical. How it is done: The HCV NS3 protease functions have been extensively studied and are considered as potential targets for antiviral therapy: see for example the many references listed in the introductory section of this application. Therefore, the activity of the compounds of the invention as anti-HCV agents was assessed using a full length HCV NS3 protease.
The protease activity of the full length NS34a was measured using a FRET-based assay utilizing a peptide substrate derived from the NS4AB cleavage site (Anaspec) and labelled at one end with a quencher (QXL520) and at the other with a fluorophore (5-FAMsp). NS34a (produced in-house by literature methods) was incubated with test compounds and peptide substrate in 50 mM Tris pH8, 20 mM DTT, 1% CHAPS, 10% glycerol and 5% DMSO. The reaction was followed by monitoring the change in fluorescence on a Molecular Devices Gemini plate reader for 30 minutes at room temperature. Initial rates were calculated from the progress curves using SoftMax Pro (Molecular Devices). IC50 values were then calculated from replicate curves using Prism GraphPad software.
For the compound `CC[C@@H](N[C@H](C)c1ccc[nH]c1=O)c1ccc(Cl)c(Oc2ccccc2)c1F` (single isomer, unassigned) [Example 314], the IC50 lay in the range of 10 to 150 µM.

For `NC(CC(=O)Nc1ccncc1)c1ccc(F)c(Oc2ccccc2)c1F` (stereo not drawn) [Example 20, 3-Amino-3-(2,4-difluoro-3-phenoxy-phenyl)-N-pyridin-4-yl-propionamide. dihydrochloride], the IC50 was in the range of 10 to 150 µM.

`CCC(NCc1cnc(C)n1C)c1ccc(F)c(Oc2ccccc2)c1F` (stereo not drawn) [Example 23] displayed an IC50 of 10 to 150 µM.

On to `CCC(NC1CCCC1)c1ccc(F)c(Oc2ccccc2)c1F` (stereo not drawn) [Example 30], for which the IC50 is 10 to 150 µM.

In the case of `CCC(NC(C)c1ccn[nH]1)c1ccc(F)c(Oc2ccccc2)c1F` (stereo not drawn) [Example 33], the IC50 lay in the range of 10 to 150 µM.

The compound `CCC(NCc1ccc2[nH]ccc2c1)c1ccc(F)c(Oc2ccccc2)c1F` (stereo not drawn) [Example 35] yielded an IC50 of 10 to 150 µM.

On to `CCC(NC(C)C1CC1)c1ccc(F)c(Oc2ccccc2)c1F` (stereo not drawn) [Example 36], for which the IC50 lay in the range of 10 to 150 µM.

The compound `C=CCNC(CC)c1ccc(F)c(Oc2ccccc2)c1F` (stereo not drawn) [Example 39, Allyl-[1-(2,4-difluoro-3-phenoxy-phenyl)-propyl]-amine. hydrochloride] yielded an IC50 of 10 to 150 µM.

For the compound `CCC(NCCOC)c1ccc(F)c(Oc2ccccc2)c1F` (stereo not drawn) [Example 42, [1-(2,4-Difluoro-3-phenoxy-phenyl)-propyl]-(2-methoxy-ethyl)-amine. hydrochloride], the IC50 fell in the range of 10 to 150 µM.

For `NC(CO)c1ccc(F)c(Oc2ccccc2)c1F` (stereo not drawn) [Example 46, 2-Amino-2-(2,4-difluoro-3-phenoxy-phenyl)-ethanol. hydrochloride], the IC50 was in the range of 10 to 150 µM.

Take `CCC(NC(C)CC(=O)NC)c1ccc(F)c(Oc2ccccc2)c1F` (stereo not drawn) [Example 48]: the IC50 lay in the range of 10 to 150 µM.

Compound `CCC(NC(C)COC)c1ccc(F)c(Oc2ccccc2)c1F` (stereo not drawn) [Example 51] yielded an IC50 of 10 to 150 µM.

Turning to `NC(c1cccnc1)c1ccc(F)c(Oc2ccccc2)c1F` (stereo not drawn) [Example 59A, C-(2,4-Difluoro-3-phenoxy-phenyl)-C-pyridin-3-yl-methylamine. dihydrochloride], the IC50 lay in the range of 10 to 150 µM.

As for `N[C@@H](c1ccc(F)c(Oc2ccccc2)c1F)[C@@H]1CCC(=O)NC1` [Example 74B], the IC50 is 10 to 150 µM.

Turning to `NCCC(N)c1ccc(F)c(Oc2ccccc2)c1F` (stereo not drawn) [Example 94], the IC50 fell in the range of 10 to 150 µM.

On to `C[C@H](CC(N)=O)N[C@@H](CC1CCNCC1)c1ccc(F)c(Oc2ccccc2)c1F` [Example 99], for which the IC50 was in the range of 10 to 150 µM.

On to `C=CCN[C@@H](CC)c1ccc(F)c(Oc2ccccc2)c1F` [Example 102, Allyl-[(S)-1-(2,4-difluoro-3-phenoxy-phenyl)-propyl]-amine.hydrochloride], for which the IC50 lay within 10 to 150 µM.

`CCc1ccc(C(N)CC2CCNCC2)c(F)c1Oc1ccccc1` (stereo not drawn) [Example 105B, 1-(4-Ethyl-2-fluoro-3-phenoxy-phenyl)-2-piperidin-4-yl-ethylamine.dihydrochloride]: the IC50 was 10 to 150 µM.

Compound `CC[C@@H](N[C@H](C)CC(N)=O)c1ccc(Cl)c(Oc2cccc(CO)c2)c1F` [Example 117] yielded an IC50 of 10 to 150 µM.

In turn, `CC[C@@H](N[C@H](C)CC(N)=O)c1ccc(F)c(Oc2ccccc2)c1F` [Example 120] registered an IC50 of 10 to 150 µM.

Consider `CCC[C@@H](N[C@H](C)CC(N)=O)c1ccc(Cl)c(Oc2ccccc2)c1F` [Example 126], for which the IC50 was in the range of 10 to 150 µM.

`CC[C@@H](N[C@H](C)CC(=O)NC)c1ccc(Cl)c(Oc2ccccc2)c1F` [Example 131B, (R)-3-[(R)-1-(4-Chloro-2-fluoro-3-phenoxy-phenyl)-propylamino]-N-methyl-butyramide. hydrochloride] displayed an IC50 of 10 to 150 µM.

The same assay, now with this note: protease activity of full length NS34a, FRET peptide substrate; read-out: Activity IC50.
Consider `CCCCC(N)c1ccc(F)c(Oc2ccccc2)c1F` (stereo not drawn) [Example 10], for which the IC50 came to 1.8 µM.

For `CCC(NCc1c[nH]c2ccccc12)c1ccc(F)c(Oc2ccccc2)c1F` (stereo not drawn) [Example 31], the IC50 came to 7.1 µM.

On to `CCC(NCc1cnc[nH]1)c1ccc(F)c(Oc2ccccc2)c1F` (stereo not drawn) [Example 37], for which the IC50 is 5.6 µM.

`CCc1ncc(CNC(CC)c2ccc(F)c(Oc3ccccc3)c2F)[nH]1` (stereo not drawn) [Example 38]: the IC50 worked out at 9.7 µM.

`NC(C1=CCCCC1)c1ccc(F)c(Oc2ccccc2)c1F` (stereo not drawn) [Example 40]: the IC50 stood at 6.3 µM.

As to `NC(c1ccc(F)c(Oc2ccccc2)c1F)C1CCOCC1` (stereo not drawn) [Example 41], the IC50 was found to be 7.1 µM.

As to `CCC(NC(CO)CO)c1ccc(F)c(Oc2ccccc2)c1F` (stereo not drawn) [Example 43], the IC50 stood at 6.6 µM.

Regarding `CC[C@@H](N[C@@H](C)C(N)=O)c1ccc(Cl)c(Oc2ccccc2)c1F` [Example 54, (S)-2-[(R)-1-(4-Chloro-2-fluoro-3-phenoxy-phenyl)-propylamino]-propionamide hydrochloride], the IC50 was 1.4 µM.

In the case of `CCC(NC[C@@H](O)CO)c1ccc(F)c(Oc2ccccc2)c1F` (stereo partly drawn) [Example 69], the IC50 was 6 µM.

In the case of `CS(=O)(=O)Nc1cccc(Oc2c(F)ccc(C(N)CC3CCNCC3)c2F)c1` (stereo not drawn) [Example 108B, N-{3-[3-(1-Amino-2-piperidin-4-yl-ethyl)-2,6-difluoro-phenoxy]-phenyl}-methane-sulfonamide.dihydrochloride], the IC50 worked out at 1.9 µM.

In the case of `CC[C@H](N)c1ccc(Cl)c(Oc2cccc(CO)c2)c1F` [Example 111, {3-[3-((S)-1-Amino-propyl)-6-chloro-2-fluoro-phenoxy]-phenyl}-methanol.hydrochloride], the IC50 was 0.63 µM.

Take `CCC(Nc1ccncc1)c1ccc(F)c(Oc2ccccc2)c1F` (stereo not drawn) [Example 113, [1-(2,4-Difluoro-3-phenoxy-phenyl)-propyl]-pyridin-4-yl-amine.hydrochloride]: the IC50 worked out at 0.68 µM.

With `CC[C@@H](N[C@@H](C)CC(N)=O)c1ccc(F)c(Oc2ccccc2)c1F` [Example 121], the IC50 came out at 0.21 µM.

`CC[C@@H](NCCC(N)=O)c1ccc(F)c(Oc2ccccc2)c1F` [Example 122]: the IC50 was found to be 1 µM.

Regarding `CC[C@H](N[C@@H](C)c1c[nH]cn1)c1ccc(Cl)c(Oc2ccccc2)c1F` [Example 129], the IC50 was found to be 0.36 µM.

With `CC[C@@H](N[C@H](C)c1c[nH]cn1)c1ccc(Cl)c(Oc2ccccc2)c1F` [Example 130], the IC50 was 1.3 µM.

For `CC[C@H](N)c1ccc(Cl)c(Oc2cccc(C(C)O)c2)c1F` (stereo partly drawn) [Example 132B, 1-{3-[3-((S)-1-Amino-propyl)-6-chloro-2-fluoro-phenoxy]-phenyl}-ethanol.hydrochloride], the IC50 is 0.52 µM.

Regarding `CC[C@H](N)c1ccc(Cl)c(Oc2cccc(C(=O)N3CCCC3)c2)c1F` [Example 133, {3-[3-((S)-1-Amino-propyl)-6-chloro-2-fluoro-phenoxy]-phenyl}-pyrrolidin-1-yl-methanone.hydrochloride], the IC50 stood at 0.7 µM.

For the compound `CC[C@H](CC(N)=O)N[C@H](CC)c1ccc(Cl)c(Oc2ccccc2)c1F` [Example 135], the IC50 worked out at 9.7 µM.

With `CC[C@H](Nc1cccc2c1CNC2)c1ccc(F)c(Oc2ccccc2)c1F` [Example 136, [(S)-1-(2,4-Difluoro-3-phenoxy-phenyl)-propyl]-(2,3-dihydro-1H-isoindol-4-yl)-amine.hydrochloride], the IC50 came to 1.1 µM.

Values taken from US20140288040A1, “SUBSTITUTED BENZYLAMINE COMPOUNDS, THEIR USE IN MEDICINE, AND IN PARTICULAR THE TREATMENT OF HEPATITIS C VIRUS (HCV) INFECTION” (ASTEX THERAPEUTICS LIMITED, priority 2011, published 2014).
